The text below walks through data of PMC12263422, “Cryo-EM structure of the human THIK-1 K2P K^+ channel reveals a lower Y gate regulated by lipids and anesthetics” (Nature Structural & Molecular Biology, 2025).

Several values for one entry are separate records, joined by “and”; a condition that tells them apart may be missing. Equal values may be shown once. Read-outs that look alike come from different tables or passages of the source.

Common to all, as to type: cell-based
One experiment concerns the target T1, THIK-1 F142A (Homo sapiens, UniProt Q9HB14, F142A).
T1 construct: expressed in transfected cells; host or cells: Xenopus oocytes (mRNA injection)
In words: Inside-out excised patch recordings, oocytes, THIK-1 F142A mutant. The following applies: read-out: TPenA IC50. The text has this: Supplement 41594_2025_1497_MOESM2_ESM.xlsx, sheet "ExtData_Fig_S2c" | column: Normalized currents

For experiment [1], the target named is T2, R87D THIK-1 single channels (Homo sapiens, UniProt Q9HB14, R87D).
T2 construct: expressed in transfected cells; host or cells: Xenopus oocytes (mRNA injection)
T2 sequence (Q9HB14 whole entry R87D): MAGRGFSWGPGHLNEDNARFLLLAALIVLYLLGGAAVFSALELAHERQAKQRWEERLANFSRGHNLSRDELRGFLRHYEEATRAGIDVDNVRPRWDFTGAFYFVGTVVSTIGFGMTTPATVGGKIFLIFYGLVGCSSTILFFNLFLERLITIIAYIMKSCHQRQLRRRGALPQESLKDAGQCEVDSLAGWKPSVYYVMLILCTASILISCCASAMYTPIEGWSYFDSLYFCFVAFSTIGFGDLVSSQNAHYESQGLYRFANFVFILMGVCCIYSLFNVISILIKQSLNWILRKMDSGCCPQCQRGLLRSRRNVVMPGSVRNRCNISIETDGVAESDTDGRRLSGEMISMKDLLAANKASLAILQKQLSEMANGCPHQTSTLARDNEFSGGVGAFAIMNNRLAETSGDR
In words: Single-channel excised patch recordings of R87D THIK-1 at -100 mV with halothane. As for the experimental part: Two-electrode voltage–clamp (TEVC) studies were performed in Xenopus oocytes. All animal use conformed to the Guide for the Care and Use of Laboratory Animals (NIH Publication 85–23), and all experiments using Xenopus toads were approved by the local ethics panels. Oocytes were stored at 17 °C in ND96 recording solution composed of (in mM): 96 NaCl, 2 KCl, 1.8 CaCl2, 1 MgCl2, 5 HEPES (pH 7.5 adjusted with NaOH and HCl), supplemented with Na-pyruvate (275 mg L^–1), theophylline (90 mg L^–1) and gentamicin (50 mg L^–1). Oocytes were injected with 1 ng mRNA for WT or mutant channels, and were incubated for 24–48 h at 17 °C. Two-electrode voltage clamp recordings were then performed as previously described[42],[43]. […] Currents were recorded with an EPC10 amplifier (HEKA Electronics) and sampled at 10 kHz or higher, with filtering set to 3 kHz (–3 dB) or higher, as appropriate for sampling rate. For measurements of GPCR activation, whole-cell currents were recorded for THIK-1 in transiently transfected HEK-293 cells. […] Single-channel currents were recorded with an Axopatch 200B amplifier through a Digidata 1440A digitizer (Molecular Devices). Data were filtered at 2 kHz and recorded at a 200-kHz sampling rate with the program Clampex (Molecular Devices). […]

The next experiment has as its target T3, THIK-1 Y102A (Homo sapiens, UniProt Q9HB14, Y102A).
T3 construct: expressed in transfected cells; host or cells: Xenopus oocytes (mRNA injection)
In words: Inside-out excised patch recordings, oocytes, THIK-1 Y102A mutant (lipid activation). The following applies: read-out: Linoleic acid EC50. The text has this: Supplement 41594_2025_1497_MOESM2_ESM.xlsx, sheet "ExtData_Fig_S5f" | column: Linoleic acid EC50 (µM); Y102A

T3 sequence (Q9HB14 whole entry Y102A): as the sequence (Q9HB14 whole entry R87D) above, with D87R, Y102A counted along it
T1 sequence (Q9HB14 whole entry F142A): as the sequence (Q9HB14 whole entry R87D) above, with D87R, F142A counted along it

As a reminder, the IC50 is the concentration needed to halve the response being measured. Take `CCCCC[N+](CCCCC)(CCCCC)CCCCC` [TPenA, tetrapentylammonium]: the concentration for half-maximal inhibition (IC50) at THIK-1 F142A (individual recordings) is 239 µM and 187 µM and 498 µM and 367 µM; at THIK-1 F142A (mean), 323 µM.
Regarding `FC(F)(F)C(Cl)Br` (stereo not drawn) [halothane], the decrease in activity in experiment [1] (0.4% halothane) is 30%; in experiment [1] (1% halothane) it was 75%.
As a reminder, the EC50 is the concentration giving half of the maximal effect. Take `CCCCC/C=C\C/C=C\CCCCCCCC(=O)O` [linoleic acid]: the half-maximal effective concentration (EC50) at THIK-1 Y102A (individual recordings) is 104 µM and 133 µM and 58 µM and 58.2 µM and 59.6 µM and 297 µM and 47.2 µM and 49 µM and 36.2 µM; at THIK-1 Y102A (mean), 93.6 µM.
